Where two headings read alike, the source gives them in different places.
Columns and labels:
A549 cells = assay: MTT assay, viability of A549 cells; assay type: cell-based; settings: Homo sapiens
Procedure: (§1) Cells were seeded into 96-well plates at a density of 1-2 × 10^3 cells/well and incubated for 24 h. Cells were treated with vehicle or various concentrations of test compounds for two (PC9 and PC9/ER cells) or three (other cells) days. Cells were further incubated with MTT solution (final concentration of 500 μg/mL) for 4 h at 37 °C. The formazan products were dissolved in dimethyl sulfoxide (DMSO), and the absorbance was measured at 570 nm. The data are presented as a percentage of the control group.

H1299 cells = assay: MTT assay, viability of H1299 cells; assay type: cell-based; settings: Homo sapiens, NCI-H1299, 72 h, three days, read-out: IC50 against the viability
Procedure: as §1

H1299/PmR cells = assay: MTT assay, viability of pemetrexed-resistant H1299/PmR cells; assay type: cell-based; settings: Homo sapiens, NCI-H1299, 72 h, three days, read-out: IC50 against the viability
From the text: (§2) Human lung cancer cell lines (A549, H1299, H1993, H1944, H226B, H226Br, H460, H522, HCC15, and PC9), a diploid human lung fibroblast cell line (Wi38), and the Lewis lung carcinoma (LLC) cell line were purchased from the American Type Culture Collection (ATCC, Manassas, VA, USA) or kindly provided by Dr. John V. Heymach (MD Anderson Cancer Center, Houston, TX, USA). Human retinal pigment epithelial (RPE) cells were kindly provided by Dr. Jeong Hun Kim (College of Medicine, Seoul National University, Seoul, Republic of Korea). HT-22 cells were provided by Dr. Dong Gyu Jo (College of Pharmacy, Sungkyunkwan University, Suwon, Republic of Korea). Lung cancer cells were cultured in RPMI 1640 medium supplemented with 10% fetal bovine serum (FBS) and antibiotics (Welgene, Gyeongsan-si, Republic of Korea). LLC, HT-22, and Wi38 cells were maintained in DMEM supplemented with 10% FBS and antibiotics. RPE cells were maintained in DMEM/F12 supplemented with 10% FBS and antibiotics. […]
(§3) Cells were seeded into 96-well plates at a density of 1-2 × 10^3 cells/well and incubated for 24 h. […] The formazan products were dissolved in dimethyl sulfoxide (DMSO), and the absorbance was measured at 570 nm. […]

H460/PmR cells = assay: MTT assay, viability of pemetrexed-resistant H460/PmR cells; assay type: cell-based; settings: Homo sapiens, NCI-H460, 72 h, three days, read-out: IC50 against the viability
From the text: as §2, §3

PC9 cells = assay: MTT assay, viability of PC9 cells; assay type: cell-based; settings: Homo sapiens, PC-9, 48 h, two days, 5% FBS, read-out: IC50 against the viability
Procedure: as §1

PC9/ER cells = assay: MTT assay, viability of erlotinib-resistant PC9/ER cells; assay type: cell-based; settings: Homo sapiens, PC-9/ER, 48 h, two days, 5% FBS, read-out: IC50 against the viability
From the text: as §2, §3

Glucose tolerance test = assay type: in vivo; settings: LL6-administered mice vs vehicle-treated mice
Procedure: Glucose tolerance tests were performed as described in the previously published literature.

AXL [1] = assay: Western blot, phosphorylation of AXL in H1944 and A549 cells; assay type: cell-based, human; settings: 2.5 μM
Procedure: Before harvesting, the cells were stimulated with 10% FBS for 20 min. Total cell lysates were prepared with modified radioimmunoprecipitation assay lysis buffer (50 mM Tris-HCl [pH 7.4], 150 mM NaCl, 1 mM EDTA, 0.25% sodium deoxycholate, 1% Triton X-100, 100 mM NaF, 5 mM Na3VO4, 1 mM PMSF, 1 μg/mL aprotinin, 1 μg/mL leupeptin, and 1 μg/mL pepstatin). Equal amounts of protein (20 μg) were subjected to 8% SDS-PAGE and electrically transferred onto polyvinylidene difluoride membranes (Bio-Rad Laboratories, Hercules, CA, USA). Membranes were blocked with blocking buffer (3% BSA in Tris-buffered saline containing 0.1% Tween-20 [TBST]) for 1 h at room temperature. The membranes were incubated with primary antibodies diluted in 3% BSA in TBST (1:1,000) overnight at 4 °C, washed multiple times with TBST, and incubated with secondary antibodies diluted in 3% nonfat dry milk in TBST (1:5,000) for 1 h at room temperature. The membranes were washed multiple times with TBST and visualized using an enhanced chemiluminescence detection kit (Thermo Fisher Scientific). Densitometric analysis was performed using ImageJ software.

AXL [2] = assay: KINOMEscan competition binding assay; set-up: species or system human
Procedure: (§4) Kd values were obtained by KINOMEscan from DiscoverX (San Diego, CA, USA). To briefly summarize, Kd was measured by a competition binding assay that quantitatively measures the ability of a compound to compete with an immobilized ligand. […] Dose response curves of 11 points are obtained for Kd values, which are measured in duplicate. See more details in the cited references [39]-[42] and see also at www.discoverx.com.

IGF-1R = assay: KINOMEscan competition binding assay; set-up: species or system human
Procedure: as §4

Src = assay: KINOMEscan competition binding assay; set-up: species or system human
Procedure: as §4

- IC50 (A549 cells; 72 h, A549, MTT assay, three days, read-out: IC50 against the viability (Table S4)): 6.63 µM
- IC50 (A549 cells; A549, MTT assay, read-out: IC50 against the viability of A549 cells (Table S2)): 2.59 µM
- IC50 (H1299 cells): 2.93 µM
- IC50 (H1299/PmR cells): 1.62 µM
- IC50 (H460/PmR cells): 3.64 µM
- IC50 (PC9 cells): > 10 µM
- IC50 (PC9/ER cells): 8.61 µM
- Kd (AXL [2]; AXL, 11-point dose response, duplicate): 1.6 µM
- inhibition (AXL [2]; AXL, LL6 at 10 µM): > 65%
- Percent Control (AXL [2]; LL6 at 10 μM): 22%
- Kd (IGF-1R; IGF-1R, 11-point dose response, duplicate): 5 µM
- inhibition (IGF-1R; IGF-1R, LL6 at 10 µM): > 65%
- Percent Control (IGF-1R; LL6 at 10 μM): 16%
- Percent Control (Src; LL6 at 10 μM): 26%
- Kd (Src; Src, 11-point dose response, duplicate): 3.4 µM
- inhibition (Src; Src, LL6 at 10 µM): > 65%
SMILES: Nc1ncnc2c1c(-c1ccc(Cl)cc1)nn2CCn1cc(COc2ccc(Nc3nccc(Nc4cnc5ccccc5c4)n3)cc2)nn1 [LL6]
- activity at 10 µM (A549 cells; 72 h, A549, MTT assay, 10 μM, read-out: % cells growth at 10 μM): 6.4%
- glucose clearance (Glucose tolerance test): minimal difference
- activation (phosphorylation) of AXL (AXL [1]): efficiently suppressed

Source: paper PMC7778606, “Development of the phenylpyrazolo[3,4-d]pyrimidine-based, insulin-like growth factor receptor/Src/AXL-targeting small molecule kinase inhibitor” (Theranostics, 2021)
